Measured values reported in patent US10670605B2, “Cysteine reactive probes and uses thereof” (The Scripps Research Institute, priority 2015, dated 2020).
One block for each compound: values may come before it.

What was measured:
Assay in all cases: Competitive isoTOP-ABPP, cell lysates
Type in all cases: binding
[1] = biological target: T1, MGMT C145 (P16455) (Homo sapiens, UniProt P16455); details: for isoTOP-ABPP reactivity ratio, P16455_C145 / isoTOP-ABPP reactivity profile ratio, P16455_C145: 500 μm
T1 sequence (P16455 1-207): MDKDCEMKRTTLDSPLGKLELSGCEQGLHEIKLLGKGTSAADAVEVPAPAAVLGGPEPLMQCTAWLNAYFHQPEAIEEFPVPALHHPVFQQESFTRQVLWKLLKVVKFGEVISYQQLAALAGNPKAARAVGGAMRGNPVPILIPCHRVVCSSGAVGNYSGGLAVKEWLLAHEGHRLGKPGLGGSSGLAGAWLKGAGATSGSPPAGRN

[2] = biological target: MLTK C22 (Q9NYL2) (Homo sapiens, UniProt Q9NYL2); details: for isoTOP-ABPP reactivity ratio, Q9NYL2_C22 / isoTOP-ABPP reactivity profile ratio, Q9NYL2_C22: 500 μm, in-vitro_ramos_231
[3] = biological target: T2, CYR61 C39 (O00622) (Homo sapiens, UniProt O00622); details: 500 μm, in-vitro_ramos_231
T2 sequence (O00622 25-381): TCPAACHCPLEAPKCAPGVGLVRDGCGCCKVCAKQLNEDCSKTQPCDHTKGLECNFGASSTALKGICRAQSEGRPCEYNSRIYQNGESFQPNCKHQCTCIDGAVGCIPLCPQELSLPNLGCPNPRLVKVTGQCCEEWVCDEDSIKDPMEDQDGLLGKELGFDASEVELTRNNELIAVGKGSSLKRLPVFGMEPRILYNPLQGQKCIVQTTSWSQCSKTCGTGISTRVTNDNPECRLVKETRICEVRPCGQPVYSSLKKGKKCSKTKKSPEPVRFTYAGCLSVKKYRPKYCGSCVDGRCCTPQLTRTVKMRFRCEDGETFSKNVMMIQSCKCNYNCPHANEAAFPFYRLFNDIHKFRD

[4] = biological target: T3, NR3C1 C302 (P04150) (Homo sapiens, UniProt P04150); details: 500 μm
T3 sequence (P04150 1-777): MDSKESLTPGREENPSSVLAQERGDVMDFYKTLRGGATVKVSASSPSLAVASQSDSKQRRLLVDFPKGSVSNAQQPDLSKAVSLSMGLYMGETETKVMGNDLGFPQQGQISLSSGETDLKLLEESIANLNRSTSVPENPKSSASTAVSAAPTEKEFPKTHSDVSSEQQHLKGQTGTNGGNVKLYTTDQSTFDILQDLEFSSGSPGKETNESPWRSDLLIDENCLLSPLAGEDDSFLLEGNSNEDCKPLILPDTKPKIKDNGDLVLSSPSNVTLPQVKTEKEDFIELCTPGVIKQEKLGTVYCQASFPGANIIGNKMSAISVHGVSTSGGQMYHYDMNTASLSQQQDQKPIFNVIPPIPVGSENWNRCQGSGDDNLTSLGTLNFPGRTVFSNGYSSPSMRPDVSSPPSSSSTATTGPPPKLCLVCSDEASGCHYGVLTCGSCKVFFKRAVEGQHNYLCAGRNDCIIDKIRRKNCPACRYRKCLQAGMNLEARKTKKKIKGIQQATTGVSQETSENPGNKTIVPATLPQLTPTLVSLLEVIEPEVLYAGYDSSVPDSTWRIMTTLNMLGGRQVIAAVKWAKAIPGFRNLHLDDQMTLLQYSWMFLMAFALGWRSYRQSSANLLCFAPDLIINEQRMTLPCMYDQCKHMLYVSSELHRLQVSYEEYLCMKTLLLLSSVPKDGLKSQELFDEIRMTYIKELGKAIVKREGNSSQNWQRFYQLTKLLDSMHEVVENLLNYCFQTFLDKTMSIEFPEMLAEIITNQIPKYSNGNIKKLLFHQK

MLTK C22 (Q9NYL2), sequence (Q9NYL2 whole entry): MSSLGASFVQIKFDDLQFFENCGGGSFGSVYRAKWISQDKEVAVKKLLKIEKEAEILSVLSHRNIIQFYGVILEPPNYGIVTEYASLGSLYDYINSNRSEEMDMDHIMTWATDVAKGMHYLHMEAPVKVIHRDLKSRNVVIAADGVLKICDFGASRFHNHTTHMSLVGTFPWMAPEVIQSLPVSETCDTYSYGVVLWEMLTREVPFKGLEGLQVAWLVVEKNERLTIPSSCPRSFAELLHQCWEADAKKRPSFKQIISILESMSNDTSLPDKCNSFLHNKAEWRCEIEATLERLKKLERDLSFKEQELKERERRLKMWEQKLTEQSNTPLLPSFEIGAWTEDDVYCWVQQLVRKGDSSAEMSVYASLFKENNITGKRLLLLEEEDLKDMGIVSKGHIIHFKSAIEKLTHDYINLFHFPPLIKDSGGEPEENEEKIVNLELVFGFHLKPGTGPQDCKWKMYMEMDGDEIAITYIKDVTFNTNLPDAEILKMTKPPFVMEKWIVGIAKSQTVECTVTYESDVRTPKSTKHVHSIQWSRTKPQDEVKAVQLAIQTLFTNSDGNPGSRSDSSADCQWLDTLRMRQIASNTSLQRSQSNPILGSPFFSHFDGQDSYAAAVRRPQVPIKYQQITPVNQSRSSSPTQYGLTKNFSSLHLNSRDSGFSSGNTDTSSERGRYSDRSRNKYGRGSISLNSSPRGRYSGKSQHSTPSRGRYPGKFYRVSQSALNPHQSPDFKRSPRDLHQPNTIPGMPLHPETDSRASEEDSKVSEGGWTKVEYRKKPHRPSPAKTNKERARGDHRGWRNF

isoTOP-ABPP ratio (reactivity profile), P16455_C145 ([1]; 500 μm in-vitro ramos): 20.0
isoTOP-ABPP ratio (reactivity profile), Q9NYL2_C22 ([2]; 500 μm in-vitro ramos_231): 1.2
SMILES: O=C(CCl)N1CCN(CC(=O)N2CCOCC2)CC1 [compound 29]

isoTOP-ABPP ratio (reactivity profile), Q9NYL2_C22 ([2]; 500 μm in-vitro ramos): 1.1
SMILES: CCN(CC)c1ccc(S(N)(=O)=O)cc1NC(=O)CCl [compound 30]

isoTOP-ABPP reactivity ratio, O00622_C39 [3]: 1.2
isoTOP-ABPP reactivity ratio, P16455_C145 ([1]; in-vitro_ramos): 1.0
SMILES: C=CC(=O)N(Cc1cccnc1)c1cc(C(F)(F)F)cc(C(F)(F)F)c1 [compound 31]

isoTOP-ABPP reactivity ratio, P16455_C145 ([1]; in-vitro_ramos): 20.0
isoTOP-ABPP reactivity ratio, Q9NYL2_C22 [2]: 2.1
SMILES: CC(C)(C)c1cc(NC(=O)CCl)on1 [compound 32]

isoTOP-ABPP reactivity ratio, Q9NYL2_C22 [2]: 0.8
SMILES: O=C(CCl)N(Cc1ccc(F)cc1)C12CC3CC(CC(C3)C1)C2 [compound 34]

isoTOP-ABPP reactivity ratio, P04150_C302 ([4]; in-vitro_ramos): 0.9
SMILES: O=C(CCl)Nc1ccccc1C1CCCCCC1 [compound 35]

isoTOP-ABPP reactivity ratio, P04150_C302 ([4]; in-vitro_ramos): 0.9
SMILES: C=CC(=O)N1CCC(c2noc3ccc(F)cc23)CC1 [compound 37]

isoTOP-ABPP reactivity ratio, O00622_C39 [3]: 0.8
isoTOP-ABPP reactivity ratio, Q9NYL2_C22 [2]: 1.2
SMILES: C=CC(=O)Nc1cc(F)c(N2CCN(C(=O)OC(C)(C)C)CC2)c(F)c1 [compound 38]

isoTOP-ABPP reactivity ratio, P16455_C145 ([1]; in-vitro_ramos): 1.0
SMILES: C=CC(=O)Nc1cc(C)c(Br)cc1C [compound 40]

isoTOP-ABPP reactivity ratio, P16455_C145 ([1]; in-vitro_ramos_231): 1.9
isoTOP-ABPP reactivity ratio, Q9NYL2_C22 [2]: 1.5
SMILES: Cc1ccc(C=C(C#N)C(=O)NCCN2CCOCC2)cc1 [compound 41]

isoTOP-ABPP reactivity profile ratio, P16455_C145 ([1]; in-vitro_ramos): 0.9
SMILES: N#CC(=Cc1ccc(-c2ccccc2Cl)o1)C(N)=O [compound 42]

isoTOP-ABPP reactivity profile ratio, P04150_C302 ([4]; in-vitro_ramos_231): 1.5
isoTOP-ABPP reactivity profile ratio, Q9NYL2_C22 [2]: 2.9
SMILES: COc1cc(NC(=O)CCl)cc(OC)c1 [compound 43]

isoTOP-ABPP reactivity profile ratio, Q9NYL2_C22 [2]: 20.0
SMILES: CC1CCc2ccccc2N1C(=O)CCl (stereo not drawn) [compound 45]

isoTOP-ABPP reactivity profile ratio, O00622_C39 [3]: 1.9
SMILES: C=CC(=O)N(c1ccccc1)C1CCCCC1 [compound 46]

isoTOP-ABPP reactivity profile ratio, O00622_C39 [3]: 2.3
SMILES: O=C(CCl)N1CCc2cc(Br)ccc21 [compound 50]

isoTOP-ABPP reactivity profile ratio, P16455_C145 ([1]; in-vitro_ramos): 20.0
SMILES: O=C(CCl)Nc1cccc2ncccc12 [compound 51]

isoTOP-ABPP reactivity profile ratio, P04150_C302 ([4]; in-vitro_ramos): 1.8
SMILES: O=C(CCl)Nc1ccc(-c2ccccc2)cc1 [compound 52]

isoTOP-ABPP reactivity profile ratio, P16455_C145 ([1]; in-vitro_ramos): 1.0
SMILES: C=CC(=O)N1CCC(Cc2ccccc2)CC1 [compound 53]
